Experimental data published in patent EP4786458A1, “ANALGESIC COMPOUND, PREPARATION METHOD THEREFOR, AND USE THEREOF” (West China Hospital, Sichuan University, priority 2023, dated 2025).

How the values were obtained:
[1] = Loss of tail withdrawal reflex (LOTWR) in rats, single intravenous injection, dose escalation for efficacy and severe adverse reactions; assay type: in vivo, SD rats; conditions: rat, in vivo, single intravenous injection, minimum dose resulting in serious adverse reactions / minimum effective dose, class symbol, read-out: The safety therapeutic index
Experimental: (§1) Using the loss of tail withdrawal reflex (LOTWR) in rats as an indicator, the potent analgesic effect of the compounds according to the present invention was evaluated.
(§2) 1.1 Experimental animals: Adult male SD rats weighing between 220-300 g were selected for the experiment. The rats were housed in sawdust-bedded cages with a temperature of 25+1°C, humidity ranging from 40% to 60%, and a 12-hour light/12-hour dark cycle. Each cage contained no more than 5 rats, with free access to water and food.
(§3) • (1) The compound of the present invention, along with the positive control drug remifentanil and the negative control (vehicle), were administered in fixed volumes. A dose escalation approach was employed to determine the minimum effective dose at which the compound of the present invention produces potent analgesic effects, as well as the minimum dose at which severe adverse reactions first appear. • (2) LOTWR lasting for 30 seconds was used as the criterion for generating potent analgesic effects. During the experiment, drugs were administered via the tail vein of rats, with a dosage volume of 0.6 mL per rat and a dosage rate of 0.02 mL/s. Subsequently, an alligator clip was applied at a distance of 1 cm from the base of the rat's tail, clamping once longitudinally and once transversely before being left in place. Meanwhile, the distal end of the alligator clip was continuously oscillated (30 times/min) to continuously generate stimulation. […] When all results were "no LOTWR" after 10 minutes of testing (5 trials), the test was stopped and recorded as "ineffective." • (3) All compounds would undergo a dose escalation for efficacy evaluation, starting from 1 mg/kg (due to the high potency of remifentanil, the lowest dose was set at 1 µg/kg), followed by 5 mg/kg, 10 mg/kg, 20 mg/kg, and so on (increasing by 20 mg/kg increments after 20 mg/kg). The dose escalation would be stopped when rats show signs of death, and the lowest effective dose and the lowest dose at which severe adverse reactions occur would be recorded throughout the process. In this study, severe adverse reactions are defined as apnea, generalized tonic rigidity, convulsions, opisthotonus, seizures, etc.
(§4) 1.3 Evaluation indicators: the minimum effective dose; the minimum dose resulting in serious adverse reactions; the safety therapeutic index = "the minimum dose resulting in serious adverse reactions" / "the minimum effective dose".

rats = experiment: as above; assay type: in vivo, SD rats; conditions: Rattus norvegicus, single intravenous injection (tail vein), LOTWR lasting for 30 seconds as criterion, class symbol, read-out: The minimum effective dose
Experimental: as §1, §2, §3, §4

| SMILES | selectivity ratio [1] | minimal effective dose (rats) [mg/kg] |
| --- | --- | --- |
| Cc1ccc(NCC(=O)OCc2ccsc2)c(N(C)C)c1 [Example 1] | > 4 | ≤ 10 |
| Cc1ccc(NCC(=O)OCc2cccs2)c(N(C)C)c1 [Example 2] | 2 to 4 | > 30 |
| CN(C)c1ccccc1NCC(=O)OCc1cccs1 [Example 4] | > 4 | ≤ 10 |
| CN(C)c1cc(F)ccc1NCC(=O)OCc1cccs1 [Example 5] | ≤ 2 | 20 to 30 |
| Cc1ccc(OCC(=O)OCc2cccs2)c(N(C)C)c1 [Example 6] | 2 to 4 | ≤ 10 |
| Cc1ccc(NCC(=O)OCc2ccco2)c(N(C)C)c1 [Example 7] | 2 to 4 | 20 to 30 |
| Cc1ccc(NCC(=O)OCc2cccs2)cc1N(C)C [Example 8] | > 4 | 10 to 20 |
| Cc1ccc(NCC(=O)NCc2ccno2)c(N(C)C)c1 [Example 9] | > 4 | ≤ 10 |
| Cc1ccc(OCC(=O)NCc2cccs2)c(N(C)C)c1 [Example 10] | > 4 | ≤ 10 |
| Cc1ccc(NCC(=O)NCc2ccco2)c(N(C)C)c1 [Example 11] | > 4 | ≤ 10 |
| Cc1ccc(OCC(=O)NCc2ccco2)c(N(C)C)c1 [Example 12] | > 4 | 10 to 20 |
| CN(C)c1cccc(NCC(=O)OCc2cccs2)c1 [Example 13] | ≤ 2 | > 30 |
| Cc1ccc(SCC(=O)OCc2cccs2)c(N(C)C)c1 [Example 14] | 2 to 4 | > 30 |
| CN(C)c1ccccc1NCC(=O)OCc1ccsc1 [Example 15] | 2 to 4 | > 30 |
| Cc1ccc(NCC(=O)NCc2ccoc2)c(N(C)C)c1 [Example 16] | ≤ 2 | > 30 |
| Cc1ccc(NCC(=O)NCc2ccns2)c(N(C)C)c1 [Example 17] | > 4 | 10 to 20 |
| Cc1ccc(NCC(=O)OCc2ccoc2)c(N(C)C)c1 [Example 18] | ≤ 2 | > 30 |
| Cc1ccc(NCC(=O)NCc2cnsc2)c(N(C)C)c1 [Example 19] | 2 to 4 | > 30 |
| Cc1ccc(SCC(=O)OCc2ccco2)c(N(C)C)c1 [Example 20] | ≤ 2 | > 30 |

| SMILES | selectivity ratio [1] | minimal effective dose (rats) [mg/kg] |
| --- | --- | --- |
| Cc1ccc(NCC(=O)NCc2ccco2)cc1N(C)C [Example 21] | ≤ 2 | > 30 |
| Cc1ccc(NCC(=O)NCc2ncc[nH]2)c(N(C)C)c1 [Example 22] | ≤ 2 | > 30 |
| Cc1ccc(OCC(=O)OCc2ccco2)c(N(C)C)c1 [Example 23] | ≤ 2 | > 30 |
| Cc1ccc(OCC(=O)OCc2cccs2)cc1N(C)C [Example 24] | ≤ 2 | > 30 |
| Cc1ccc(NCC(=O)NCc2ccns2)cc1N(C)C [Example 25] | 2 to 4 | 10 to 20 |
| Cc1ccc(NCC(=O)NCc2ccccc2)c(N(C)C)c1 [Example 27] | ≤ 2 | ≤ 10 |
| Cc1cc(C)cc(CNC(=O)CNc2ccc(C)cc2N(C)C)c1 [Example 28] | ≤ 2 | 20 to 30 |
| Cc1ccc(NCC(=O)NCc2cccs2)cc1N(C)C [Example 29] | ≤ 2 | > 30 |
| Cc1ccc(NCC(=O)OCc2ccoc2)cc1N(C)C [Example 30] | 2 to 4 | > 30 |
| Cc1ccc(NCC(=O)NCc2cc(C)nn2C)c(N(C)C)c1 [Example 31] | 2 to 4 | 10 to 20 |
| Cc1ccc(NCC(=O)OCc2cc(C)nn2C)c(N(C)C)c1 [Example 32] | > 4 | ≤ 10 |
| Cc1ccc(NCC(=O)NCc2ccnn2C)c(N(C)C)c1 [Example 33] | ≤ 2 | > 30 |
| Cc1ccc(NCC(=O)OCc2ccnn2C)c(N(C)C)c1 [Example 34] | > 4 | ≤ 10 |
| Cc1ccc(NCC(=O)OCc2ccnn2C)cc1N(C)C [Example 35] | > 4 | ≤ 10 |
| Cc1ccc(OCC(=O)NCc2ccsc2)c(N(C)C)c1 [Example 36] | 2 to 4 | 10 to 20 |
| Cc1cc(COC(=O)CNc2ccc(C)c(N(C)C)c2)n(C)n1 [Example 37] | > 4 | ≤ 10 |
| Cc1ccc(NCC(=O)OCc2ccsc2)cc1N(C)C [Example 38] | ≤ 2 | > 30 |
| Cc1ccc(NCC(=O)OCc2ccco2)cc1N(C)C [Example 39] | > 4 | 10 to 20 |
| Cc1ccc(NCC(=O)OCc2ccno2)c(N(C)C)c1 [Example 40] | ≤ 2 | > 30 |
